Laboratory results from patent US7118895B2, “Process for producing aglycon by using diglycosidase and flavor-improved food containing the aglycon and converting agent to be used in the process” (Amano Enzyme Inc., priority 2000, dated 2006).

System: Crude diglycosidase
Experiment: Examination of pH in the conversion into isoflavone aglycons by diglycosidase using soybean materials
Type: biochemical, Penicillium multicolor IAM7153
Parameters: Decomposition efficiency of genistin family in soymilk / Decomposition efficiency of genistin family in defatted soybean / Decomposition efficiency of daidzin family in defatted soybean: concentration or dose not given beside the values
Conditions: for Decomposition efficiency of daidzin family in roasted soy flour: 55° C.
Experimental: A substrate solution of 450 μL was prepared by suspending 50 mg of each soybean material (roasted soy flour (manufactured by Fuji Shokuryo K.K.), soymilk (manufactured by Gitoh Shokuhin K.K.), defatted soybean (manufactured by Fuji Seiyu K.K.), concentrated soybean protein (manufactured by Fuji Seiyu K.K.)), and adjusting the pH to 2 to 11 with hydrochloric acid or sodium hydroxide. Each enzyme solution of pH 2–11 wherein diglycosidase activity of crude diglycosidase was adjusted to 1.88 AU/mL was added thereto in an amount of 50 μL and the whole was reacted at 55° C. at the total volume of 500 μL. To the reaction mixture was added 700 μL of ethanol after 0, 1, 3, and 6 hours of the reaction. After stirring and ultrasonication, the mixture was subjected to centrifugal separation at 15,000 rpm and 4° C. for 10 minutes. The supernatant was filtered through a filter and the existence of isoflavone glycosides and aglycon isoflavones contained in the reaction mixture was detected by HLPC (Tables 15 to 26).

[1] = pH4.8, heat treatment of enzyme: no, reaction time 0 h
[2] = pH4.8, heat treatment of enzyme: no, reaction time 1 h
[3] = pH4.8, heat treatment of enzyme: no, reaction time 3 h
[4] = pH4.8, heat treatment of enzyme: no, reaction time 6 h
[5] = pH4.8, heat treatment of enzyme: yes, reaction time 6 h

O=c1c(-c2ccc(O)cc2)coc2cc(O)ccc12 [daidzein]
Decomposition efficiency of daidzin family in concentrated soybean protein (pH1.6, heat treatment of enzyme: no, reaction time 0 h): 3.0% | Decomposition efficiency of daidzin family in concentrated soybean protein (pH1.6, heat treatment of enzyme: no, reaction time 1 h): 3.3% | Decomposition efficiency of daidzin family in concentrated soybean protein (pH1.6, heat treatment of enzyme: no, reaction time 3 h): 3.3% | Decomposition efficiency of daidzin family in concentrated soybean protein (pH1.6, heat treatment of enzyme: no, reaction time 6 h): 3.4% | Decomposition efficiency of daidzin family in concentrated soybean protein (pH1.6, heat treatment of enzyme: yes, reaction time 6 h): 2.9% | Decomposition efficiency of daidzin family in roasted soy flour (pH2, heat treatment of enzyme no, reaction time 0 h): 3.5 | Decomposition efficiency of daidzin family in roasted soy flour (pH2, heat treatment of enzyme no, reaction time 1 h): 5.4 | Decomposition efficiency of daidzin family in roasted soy flour (pH2, heat treatment of enzyme no, reaction time 3 h): 4.8 | Decomposition efficiency of daidzin family in roasted soy flour (pH2, heat treatment of enzyme no, reaction time 6 h): 4.5 | Decomposition efficiency of daidzin family in roasted soy flour (pH2, heat treatment of enzyme yes, reaction time 6 h): 3.8 | Decomposition efficiency of daidzin family in soymilk (pH2.3, heat treatment of enzyme: no, reaction time 0 h): 10.5% | Decomposition efficiency of daidzin family in soymilk (pH2.3, heat treatment of enzyme: no, reaction time 1 h): 45.3% | Decomposition efficiency of daidzin family in soymilk (pH2.3, heat treatment of enzyme: no, reaction time 3 h): 48.9% | Decomposition efficiency of daidzin family in soymilk (pH2.3, heat treatment of enzyme: no, reaction time 6 h): 51.5% | Decomposition efficiency of daidzin family in soymilk (pH2.3, heat treatment of enzyme: yes, reaction time 6 h): 10.2% | Decomposition efficiency of daidzin family in defatted soybean (pH2.6, heat treatment of enzyme: no, reaction time 0 h): 13.2% | Decomposition efficiency of daidzin family in defatted soybean (pH2.6, heat treatment of enzyme: no, reaction time 1 h): 21.3% | Decomposition efficiency of daidzin family in defatted soybean (pH2.6, heat treatment of enzyme: no, reaction time 3 h): 40.9% | Decomposition efficiency of daidzin family in defatted soybean (pH2.6, heat treatment of enzyme: no, reaction time 6 h): 42.9% | Decomposition efficiency of daidzin family in defatted soybean (pH2.6, heat treatment of enzyme: yes, reaction time 6 h): 13.0% | Decomposition efficiency of daidzin family in concentrated soybean protein (pH2.7, heat treatment of enzyme: no, reaction time 0 h): 3.0% | Decomposition efficiency of daidzin family in concentrated soybean protein (pH2.7, heat treatment of enzyme: no, reaction time 1 h): 40.7% | Decomposition efficiency of daidzin family in concentrated soybean protein (pH2.7, heat treatment of enzyme: no, reaction time 3 h): 41.6% | Decomposition efficiency of daidzin family in concentrated soybean protein (pH2.7, heat treatment of enzyme: no, reaction time 6 h): 45.0% | Decomposition efficiency of daidzin family in concentrated soybean protein (pH2.7, heat treatment of enzyme: yes, reaction time 6 h): 3.2% | Decomposition efficiency of daidzin family in roasted soy flour (pH3, heat treatment of enzyme no, reaction time 0 h): 3.5 | Decomposition efficiency of daidzin family in roasted soy flour (pH3, heat treatment of enzyme no, reaction time 1 h): 54.0 | Decomposition efficiency of daidzin family in roasted soy flour (pH3, heat treatment of enzyme no, reaction time 3 h): 60.4 | Decomposition efficiency of daidzin family in roasted soy flour (pH3, heat treatment of enzyme no, reaction time 6 h): 59.3 | Decomposition efficiency of daidzin family in roasted soy flour (pH3, heat treatment of enzyme yes, reaction time 6 h): 3.7 | Decomposition efficiency of daidzin family in defatted soybean (pH3.4, heat treatment of enzyme: no, reaction time 0 h): 13.2% | Decomposition efficiency of daidzin family in defatted soybean (pH3.4, heat treatment of enzyme: no, reaction time 1 h): 60.6% | Decomposition efficiency of daidzin family in defatted soybean (pH3.4, heat treatment of enzyme: no, reaction time 3 h): 65.5% | Decomposition efficiency of daidzin family in defatted soybean (pH3.4, heat treatment of enzyme: no, reaction time 6 h): 71.0% | Decomposition efficiency of daidzin family in defatted soybean (pH3.4, heat treatment of enzyme: yes, reaction time 6 h): 15.1% | Decomposition efficiency of daidzin family in soymilk (pH3.5, heat treatment of enzyme: no, reaction time 0 h): 10.5% | Decomposition efficiency of daidzin family in soymilk (pH3.5, heat treatment of enzyme: no, reaction time 1 h): 64.4% | Decomposition efficiency of daidzin family in soymilk (pH3.5, heat treatment of enzyme: no, reaction time 3 h): 84.9% | Decomposition efficiency of daidzin family in soymilk (pH3.5, heat treatment of enzyme: no, reaction time 6 h): 92.6% | Decomposition efficiency of daidzin family in soymilk (pH3.5, heat treatment of enzyme: yes, reaction time 6 h): 10.6% | Decomposition efficiency of daidzin family in concentrated soybean protein (pH3.7, heat treatment of enzyme: no, reaction time 0 h): 3.0% | Decomposition efficiency of daidzin family in concentrated soybean protein (pH3.7, heat treatment of enzyme: no, reaction time 1 h): 58.4% | Decomposition efficiency of daidzin family in concentrated soybean protein (pH3.7, heat treatment of enzyme: no, reaction time 3 h): 67.0% | Decomposition efficiency of daidzin family in concentrated soybean protein (pH3.7, heat treatment of enzyme: no, reaction time 6 h): 74.8% | Decomposition efficiency of daidzin family in concentrated soybean protein (pH3.7, heat treatment of enzyme: yes, reaction time 6 h): 3.1% | Decomposition efficiency of daidzin family in roasted soy flour (pH4, heat treatment of enzyme no, reaction time 0 h): 3.5 | Decomposition efficiency of daidzin family in roasted soy flour (pH4, heat treatment of enzyme no, reaction time 1 h): 65.6 | Decomposition efficiency of daidzin family in roasted soy flour (pH4, heat treatment of enzyme no, reaction time 3 h): 79.5 | Decomposition efficiency of daidzin family in roasted soy flour (pH4, heat treatment of enzyme no, reaction time 6 h): 88.9 | Decomposition efficiency of daidzin family in roasted soy flour (pH4, heat treatment of enzyme yes, reaction time 6 h): 3.5 | Decomposition efficiency of daidzin family in defatted soybean [1]: 15.7% | Decomposition efficiency of daidzin family in soymilk [1]: 9.0% | Decomposition efficiency of daidzin family in defatted soybean [2]: 59.5% | Decomposition efficiency of daidzin family in soymilk [2]: 52.6% | Decomposition efficiency of daidzin family in defatted soybean [3]: 63.3% | Decomposition efficiency of daidzin family in soymilk [3]: 66.1% | Decomposition efficiency of daidzin family in defatted soybean [4]: 69.5% | Decomposition efficiency of daidzin family in soymilk [4]: 79.7% | Decomposition efficiency of daidzin family in defatted soybean [5]: 24.5% | Decomposition efficiency of daidzin family in soymilk [5]: 9.1%
